Test results published in patent publication US20120142750A1, “INDOLEAMINE 2,3-DIOXYGENASE PATHWAYS IN THE GENERATION OF REGULATORY T CELLS” (Regents of the University of Minnesota, priority 2005, published 2012).
“Also recorded” adds a separate entry of the source.

Key:
[1] = system: PDCs and allogeneic naive CD4+ T cells; assay: In vitro priming of naive CD4+ T cells by allogeneic PDCs: CD4+CD25+Foxp3+ Treg generation (flow cytometry); type: cell-based, human; conditions: added to CpG ODN-PDC/naive CD4+ T cell priming cultures; day 7; 1MT 250 μM, Abs 0.1-10 μg/ml
Text: PDC, B, and T cell isolation. Human PBMC were isolated under IRE-approved protocols from apheresis products of healthy blood donors (Memorial Blood Centers of Minnesota, Minneapolis, Minn.) by Ficoll-Paque density gradient centrifugation. Plasmascytoid dendritic cells (PDCs) were isolated from PBMC using BDCA-4 cell isolation kits and the MACS system, followed by staining and sorting to collect purified Lin-CD11c-CD123+ PDCs, as reported previously (Moseman et al., J Immunol 2004; 173:4433-4442). […] cells were isolated from PBMC using CD4 T cell isolation kits followed by positive selection with CD45RA microbeads. […] B cells were isolated from PBMC with CD19 microbeads and the MACS system to greater than 98% purity of CD19+ B cells. All cell isolations kits and microbeads were from Miltenyi Biotec (Bergisch Gladbach, Germany). Reagents. Phosphorothioate-modified type-A CpG ODN 2216: […] NO:2), type-B CpG ODN 2006: […] NO:3) (sequences are shown 5'-3'; small letters represent phosphorothioate linkage; capital letters represent phosphodiester linkage 3' of the base; bold represents CpGdinucleotides) were from Integrated DNA Technologies (Coralville, Iowa), diluted in PBS, and used at a final concentration of 1 microgran per milliliter (μg/ml). […] Kynurenine (L-KYN, Sigma-Aldrich) was used at a final concentration of 50 μM. In vitro priming of naive CD4+ T cells. CD4+CD45RA+ naive T cells were primed with allogeneic PDCs or irradiated B cells (30 Gy) at a 10:1 ratio (e.g., 2×10^6 naive CD4+ T cells plus 2×105 PDCs per well in 24-well plates) with ODN 2216 or ODN 2006 present in RPMI 1640 medium supplemented with 10% human AB serum. 1 MT and/or KYN were added into CpG ODN-PDC or CpG ODN-B cell mediated naive CD4+ T cell priming cultures as indicated. […] After 7 days, primed T cells in cultures were harvested, assessed for their surface phenotype, intracellular Foxp3 expression, and their function in MLR assays. […] Mean fluorescence intensity (MFI) and positive cell percentages of stained cells were determined by flow cytometry.

[2] = system: PDCs; assay: Surface expression of CD80, CD86, HLA-DR on PDCs (flow cytometry); type: cell-based, human; conditions: 1MT added to priming MLRs with CpG ODN
Text: PDC, B, and T cell isolation. Human PBMC were isolated under IRE-approved protocols from apheresis products of healthy blood donors (Memorial Blood Centers of Minnesota, Minneapolis, Minn.) by Ficoll-Paque density gradient centrifugation. Plasmascytoid dendritic cells (PDCs) were isolated from PBMC using BDCA-4 cell isolation kits and the MACS system, followed by staining and sorting to collect purified Lin-CD11c-CD123+ PDCs, as reported previously (Moseman et al., J Immunol 2004; 173:4433-4442). CD4+CD45RA+ naïve T cells were isolated from PBMC using CD4 T cell isolation kits followed by positive selection with CD45RA microbeads. The purity of naïve CD4+ T cells was greater than 95% for CD4+CD45RA+ expression and less than 0.5% for CD25+ expression. B cells were isolated from PBMC with CD19 microbeads and the MACS system to greater than 98% purity of CD19+ B cells. All cell isolations kits and microbeads were from Miltenyi Biotec (Bergisch Gladbach, Germany).
Flow Cytometry. Fluorescent antibodies (Abs) against human CD3, CD4, CD11c, CD19, CD25, CD40, CD45, CD45RA, CD45RO, CD80, CD86, CD123, HLA-DR, lineage (Lin) markers, and isotype control Abs were from BD Biosciences (San Diego, Calif.). […] Mean fluorescence intensity (MFI) and positive cell percentages of stained cells were determined by flow cytometry.

[3] = system: OT-I and A1 T cells; assay: Bystander-suppression assays (TDLN IDO+ DCs, OT-I, Tregs, A1 bystander cells); type: cell-based, mouse
Experimental: Isolation of tumor-draining lymph node DCs.
Bystander-suppression assays. All experiments were repeated 3-5 times unless otherwise indicated. OT-I cells were sorted as CD8^+ spleen cells, gated on the CD11c^NEGB220^NEG fraction to exclude DCs. Sorted DCs from TDLN were mixed with 1×10^5 responder cells at a 1:40 ratio in V-bottom culture wells (Nunc). […] Sorted CD4^+ A1 cells (1×10^5) and CD11c^+ DCs (1:40 ratio) from normal CBA spleen were added as bystander cells. […] For transwell assays, 96-Multiwell insert plates (1 uM pore size, BD Falcon) were used and the number of cells in all groups was doubled.
Feeder layer. Plasmacytoid DCs and Tregs have been reported to require survival factors to maintain viability and function in vitro.
Readouts for T cell proliferation. […] After 72 hours, assays were stained for CD4 vs CD8 and CFSE fluorescence analyzed gated on CD4^+ (A1) and CD8^+ (OT-I) populations.
Anti-CD3 proliferation and preactivation assays. […] For pre-activation studies, 2×10^4 Tregs were cultured with 1×10^5T-depleted spleen cells plus 0.1 ug/ml αCD3 antibody and 200 U/ml IL-2 (R&D Systems) for 48 hours.

Cn1cc(C[C@@H](N)C(=O)O)c2ccccc21 [Inhibitor 1MT, 1-methyl-D-tryptophan]
PDC-induced CD4+CD25+Foxp3+ Treg generation, effect of added agent [1]: significantly reduced | expression of cell surface maturation markers by PDCs (CD80, CD86, HLA-DR) [2]: insignificant effects | Treg-mediated suppression of bystander cells when IDO blocked ([3]; 200 uM 1MT, without αCD3 mitogen): no suppression; also recorded: no spontaneous suppressor activity | αCD3-induced suppression in transwell experiments ([3]; 10-fold more Tregs, αCD3 mitogen added): not blocked | suppression of bystander cells by Tregs in transwell chambers ([3]; transwell, Tregs with IDO+ DCs in lower chamber): abrogated
